According to ChEMBL document CHEMBL1201862, “PubChem BioAssay data set” (2004):
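The compound was tested at five concentrations on cells cultured in 96-well plates, with a 48-hour exposure period. Abbreviation: GI50, concentration required for 50% inhibition of growth.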 Active and inactive are the calls of the source. No stated cut-off is given here; in the data, active = GI50 up to about 1.1 µM and inactive = higher.

What was measured:
Test in all cases: DTP human tumour cell line panel, 48 h
786-0 = tested on: 786-0
A498 = tested on: A498
A549 = tested on: A549
ACHN = tested on: ACHN
BT-549 = tested on: BT-549
CAKI-1 = tested on: CAKI-1
CCRF-CEM = tested on: CCRF-CEM
COLO 205 = tested on: COLO 205
DU-145 = tested on: DU-145
EKVX = tested on: EKVX
HCC 2998 = tested on: HCC 2998
HCT-116 = tested on: HCT-116
HCT-15 = tested on: HCT-15
HL-60 = tested on: HL-60
HOP-62 = tested on: HOP-62
HT-29 = tested on: HT-29
Hs-578T = tested on: Hs-578T
IGROV-1 = tested on: IGROV-1
K562 = tested on: K562
KM12 = tested on: KM12
LOX IMVI = tested on: LOX IMVI
M14 = tested on: M14
MCF7 = tested on: MCF7
MDA-MB-231 = tested on: MDA-MB-231
MDA-MB-435 = tested on: MDA-MB-435
MDA-N = tested on: MDA-N
MOLT-4 = tested on: MOLT-4
Malme-3M = tested on: Malme-3M
NCI-H226 = tested on: NCI-H226
NCI-H23 = tested on: NCI-H23
NCI-H522 = tested on: NCI-H522
NCI/ADR-RES = tested on: NCI/ADR-RES
OVCAR-3 = tested on: OVCAR-3
OVCAR-4 = tested on: OVCAR-4
OVCAR-5 = tested on: OVCAR-5
OVCAR-8 = tested on: OVCAR-8
PC-3 = tested on: PC-3
RPMI-8226 = tested on: RPMI-8226
RXF 393 = tested on: RXF 393
SF-268 = tested on: SF-268
SF-295 = tested on: SF-295
SK-MEL-28 = tested on: SK-MEL-28
SK-MEL-2 = tested on: SK-MEL-2
SK-MEL-5 = tested on: SK-MEL-5
SK-OV-3 = tested on: SK-OV-3
SN12C = tested on: SN12C
SNB-19 = tested on: SNB-19
SNB-75 = tested on: SNB-75
SR = tested on: SR
SW-620 = tested on: SW-620
T47D = tested on: T47D
TK-10 = tested on: TK-10
U-251 = tested on: U-251
UACC-257 = tested on: UACC-257
UACC-62 = tested on: UACC-62
UO-31 = tested on: UO-31
HOP-92 = tested on: HOP-92
NCI-H460 = tested on: NCI-H460
SF-539 = tested on: SF-539

Compound: O=C(O)CC[P+](c1ccccc1)(c1ccccc1)c1ccccc1
- GI50 (786-0): 30.6 µM (inactive)
- GI50 (A498): 42.9 µM (inactive)
- GI50 (A549): 45.4 µM (inactive)
- GI50 (ACHN): > 100 µM (inactive)
- GI50 (BT-549): 21.1 µM (inactive)
- GI50 (CAKI-1): > 100 µM (inactive)
- GI50 (CCRF-CEM): 50.7 µM (inactive)
- GI50 (COLO 205): 14.3 µM (inactive)
- GI50 (DU-145): 48.2 µM (inactive)
- GI50 (EKVX): 36.8 µM (inactive)
- GI50 (HCC 2998): > 100 µM (inactive)
- GI50 (HCT-116): 21.3 µM (inactive)
- GI50 (HCT-15): > 100 µM
- GI50 (HL-60): 11.5 µM (inactive)
- GI50 (HOP-62): 37.2 µM (inactive)
- GI50 (HT-29): 15.4 µM (inactive)
- GI50 (Hs-578T): 48.3 µM (inactive)
- GI50 (IGROV-1): 15 µM (inactive)
- GI50 (K562): 11.7 µM (inactive)
- GI50 (KM12): 29 µM (inactive)
- GI50 (LOX IMVI): 30.7 µM (inactive)
- GI50 (M14): 23.1 µM (inactive)
- GI50 (MCF7): 39 µM (inactive)
- GI50 (MDA-MB-231): 57.5 µM (inactive)
- GI50 (MDA-MB-435): 26.5 µM (inactive)
- GI50 (MDA-N): 20.4 µM (inactive)
- GI50 (MOLT-4): 49.1 µM (inactive)
- GI50 (Malme-3M): 16.3 µM (inactive)
- GI50 (NCI-H226): 53.5 µM (inactive)
- GI50 (NCI-H23): 23.3 µM (inactive)
- GI50 (NCI-H522): 24.5 µM (inactive)
- GI50 (NCI/ADR-RES): > 100 µM (inactive)
- GI50 (OVCAR-3): 13.5 µM (inactive)
- GI50 (OVCAR-4): 46.2 µM (inactive)
- GI50 (OVCAR-5): 38.1 µM (inactive)
- GI50 (OVCAR-8): 43.5 µM (inactive)
- GI50 (PC-3): 37.4 µM (inactive)
- GI50 (RPMI-8226): 3.21 µM (inactive)
- GI50 (RXF 393): > 100 µM (inactive)
- GI50 (SF-268): 31.3 µM (inactive)
- GI50 (SF-295): 79.6 µM (inactive)
- GI50 (SK-MEL-28): > 100 µM (inactive)
- GI50 (SK-MEL-2): 21.6 µM (inactive)
- GI50 (SK-MEL-5): 14.6 µM (inactive)
- GI50 (SK-OV-3): 88.5 µM (inactive)
- GI50 (SN12C): 16.9 µM (inactive)
- GI50 (SNB-19): 24.2 µM (inactive)
- GI50 (SNB-75): 28.4 µM (inactive)
- GI50 (SR): 50.4 µM (inactive)
- GI50 (SW-620): > 100 µM (inactive)
- GI50 (T47D): 7.94 µM (inactive)
- GI50 (TK-10): > 100 µM (inactive)
- GI50 (U-251): 23.2 µM (inactive)
- GI50 (UACC-257): 23.2 µM (inactive)
- GI50 (UACC-62): 22.3 µM (inactive)
- GI50 (UO-31): > 100 µM (inactive)

Compound: CN(C)Cc1cc(C(C)(C)C)cc(CNC2CCCCC2)c1O
- GI50 (786-0): 27.9 µM (inactive)
- GI50 (A498): 27.9 µM (inactive)
- GI50 (A549): 29.6 µM (inactive)
- GI50 (ACHN): 42.9 µM (inactive)
- GI50 (BT-549): 76.7 µM (inactive)
- GI50 (CAKI-1): 44.6 µM (inactive)
- GI50 (CCRF-CEM): 12.9 µM (inactive)
- GI50 (COLO 205): 15.9 µM (inactive)
- GI50 (DU-145): 40.9 µM (inactive)
- GI50 (EKVX): 15.8 µM (inactive)
- GI50 (HCC 2998): 11.6 µM (inactive)
- GI50 (HCT-116): 25.4 µM (inactive)
- GI50 (HCT-15): 28.8 µM
- GI50 (HOP-62): 41.2 µM (inactive)
- GI50 (HOP-92): 19.5 µM (inactive)
- GI50 (HT-29): 17.5 µM (inactive)
- GI50 (Hs-578T): 61.2 µM (inactive)
- GI50 (IGROV-1): 29.4 µM (inactive)
- GI50 (K562): 22.1 µM (inactive)
- GI50 (KM12): 30.4 µM (inactive)
- GI50 (LOX IMVI): 22.1 µM (inactive)
- GI50 (M14): 16.1 µM (inactive)
- GI50 (MCF7): 29.4 µM (inactive)
- GI50 (MDA-MB-231): 42.3 µM (inactive)
- GI50 (MDA-MB-435): 65.9 µM (inactive)
- GI50 (MDA-N): 83.8 µM (inactive)
- GI50 (MOLT-4): 12.3 µM (inactive)
- GI50 (Malme-3M): 25.6 µM (inactive)
- GI50 (NCI-H23): 69.7 µM (inactive)
- GI50 (NCI-H460): 20.4 µM (inactive)
- GI50 (NCI-H522): 24.2 µM (inactive)
- GI50 (NCI/ADR-RES): 25.2 µM (inactive)
- GI50 (OVCAR-3): 29.9 µM (inactive)
- GI50 (OVCAR-4): 35.6 µM (inactive)
- GI50 (OVCAR-5): 19.2 µM (inactive)
- GI50 (PC-3): 24.6 µM (inactive)
- GI50 (RPMI-8226): 16.7 µM (inactive)
- GI50 (RXF 393): 29.2 µM (inactive)
- GI50 (SF-268): 18.7 µM (inactive)
- GI50 (SF-295): 23 µM (inactive)
- GI50 (SF-539): 17.7 µM (inactive)
- GI50 (SK-MEL-28): 33.3 µM (inactive)
- GI50 (SK-MEL-2): > 100 µM (inactive)
- GI50 (SK-MEL-5): 15.5 µM (inactive)
- GI50 (SK-OV-3): 30.7 µM (inactive)
- GI50 (SN12C): 35.6 µM (inactive)
- GI50 (SNB-19): > 100 µM (inactive)
- GI50 (SNB-75): 52.4 µM (inactive)
- GI50 (SR): 19.7 µM (inactive)
- GI50 (SW-620): 33.5 µM (inactive)
- GI50 (T47D): 63.5 µM (inactive)
- GI50 (TK-10): 27.7 µM (inactive)
- GI50 (U-251): 45 µM (inactive)
- GI50 (UACC-257): 26.2 µM (inactive)
- GI50 (UACC-62): 51.9 µM (inactive)
- GI50 (UO-31): 15.6 µM (inactive)
